Calls of active or inactive are those of the source. How the calls were made is not given here.
Test system: rodent carcinogenicity bioassays, tumor incidence
Assay: CCRIS carcinogenicity studies
Excerpt: The CCRIS database contains chemical records with carcinogenicity, mutagenicity, tumor promotion, and tumor inhibition test results. It was developed by the National Cancer Institute (NCI). Data are derived from studies cited in primary journals, current awareness tools, NCI reports, and other sources. Test results have been reviewed by experts in carcinogenesis and mutagenesis.
CCRIS provides historical information from the years 1985 - 2011. It is no longer updated.
This is an archive assay for CCRIS carcinogenicity studies.

## O=[N+]([O-])c1ccc2c(c1)-c1ccc([N+](=O)[O-])c3cccc-2c13
Species: RAT, Strain/Sex: F344/DUCRJ/MALE, Route: PULMONARY IMPLANT, Dose: 0, 0.05, 0.1, 0.2 MG AS A SUSPENSION IN EQUAL VOL OF BEESWAX AND TRICAPRYLIN IMPLANTED IN LEFT LUNG (STUDY DURATION: 70, Dose: 0, 0.05, 0.1, 0.2 MG AS A SUSPENSION IN EQUAL VOL OF BEESWAX AND TRICAPRYLIN IMPLANTED IN LEFT LUNG (STUDY DURATION: 70, Tumor Site: Type of Lesion: LUNG: TUMOR
  carcinogen call: active; positive
Species: RAT, Strain/Sex: F344/MALE, Route: LUNG IMPLANT, Dose: 0, 50, 100, 200 UG IN BEESWAX/TRICAPRYLIN INTO LOWER LEFT LUNG ONCE (STUDY DURATION: 100 WK), Dose: 0, 50, 100, 200 UG IN BEESWAX/TRICAPRYLIN INTO LOWER LEFT LUNG ONCE (STUDY DURATION: 100 WK), Tumor Site: Type of Lesion: LUNG: SQUAMOUS CELL CARCINOMA, ADENOSQUAMOUS CARCINOMA, TUMOR
  carcinogen call: active; positive
Species: RAT, Strain/Sex: F344/MALE, Route: PULMONARY IMPLANT, Dose: 0, 50, 100, 200 UG IN 50 µL BEESWAX/TRICAPRYLIN IMPLANTED FOR UP TO 100 WK (STUDY DURATION: 100 WK), Dose: 0, 50, 100, 200 UG IN 50 µL BEESWAX/TRICAPRYLIN IMPLANTED FOR UP TO 100 WK (STUDY DURATION: 100 WK), Tumor Site: Type of Lesion: LUNG: TUMOR
  carcinogen call: active; positive

## CC(=O)OCN(N=O)c1ccccc1
Species: HAMSTER, Strain/Sex: SYRIAN/FEMALE, Route: SUBCUTANEOUS, Dose: 0, 1.56, 3.13 MG/KG/WK IN OLIVE OIL FOR LIFE (STUDY DURATION: 60 WK), Dose: 0, 1.56, 3.13 MG/KG/WK IN OLIVE OIL FOR LIFE (STUDY DURATION: 60 WK), Tumor Site: Type of Lesion: INJECTION SITE: TUMOR
  carcinogen call: active; positive
Species: HAMSTER, Strain/Sex: SYRIAN/FEMALE, Route: SUBCUTANEOUS, Dose: 0, 6.25, 12.5 MG/KG/WK IN OLIVE OIL FOR 4 WK (STUDY DURATION: 60 WK), Dose: 0, 6.25, 12.5 MG/KG/WK IN OLIVE OIL FOR 4 WK (STUDY DURATION: 60 WK)
  carcinogen call: inactive; negative
Species: HAMSTER, Strain/Sex: SYRIAN/MALE, Route: SUBCUTANEOUS, Dose: 0, 1.56, 3.13 MG/KG/WK IN OLIVE OIL FOR LIFE (STUDY DURATION: 60 WK), Dose: 0, 1.56, 3.13 MG/KG/WK IN OLIVE OIL FOR LIFE (STUDY DURATION: 60 WK)
  carcinogen call: inactive; negative
Species: HAMSTER, Strain/Sex: SYRIAN/MALE, Route: SUBCUTANEOUS, Dose: 0, 6.25, 12.5 MG/KG/WK IN OLIVE OIL FOR 4 WK (STUDY DURATION: 60 WK), Dose: 0, 6.25, 12.5 MG/KG/WK IN OLIVE OIL FOR 4 WK (STUDY DURATION: 60 WK)
  carcinogen call: inactive; negative

## Cc1ccc(N(CC2=NCCN2)c2cccc(O)c2)cc1
Species: RAT, Strain/Sex: CRL:CD BR/MALE, FEMALE (65/GROUP), Route: ORAL (GAVAGE), Dose: 10, 50, 150 MG/KG DAILY IN DISTILLED WATER (STUDY DURATION: 101 WK), Dose: 10, 50, 150 MG/KG DAILY IN DISTILLED WATER (STUDY DURATION: 101 WK), Tumor Site: Type of Lesion: BROWN ADIPOSE TISSUE: HIBERNOMA
  carcinogen call: active; positive
Species: RAT, Strain/Sex: CRL:CD BR/MALE, FEMALE (65/GROUP), Route: ORAL (GAVAGE), Dose: 10, 50, 150 MG/KG DAILY IN DISTILLED WATER (STUDY DURATION: 101 WK), Dose: 10, 50, 150 MG/KG DAILY IN DISTILLED WATER (STUDY DURATION: 101 WK), Tumor Site: Type of Lesion: PITUITARY: ADENOMA
  carcinogen call: active; positive

## FCC(F)(F)F
Species: MOUSE, Strain/Sex: B6C3F1/FEMALE, Route: INHALATION, Dose: 0, 2500, 15000, 75000 PPM SNOUT-ONLY INHALATION 1 HR/D FOR AT LEAST 104 WK (STUDY DURATION: 106 WK), Dose: 0, 2500, 15000, 75000 PPM SNOUT-ONLY INHALATION 1 HR/D FOR AT LEAST 104 WK (STUDY DURATION: 106 WK)
  carcinogen call: inactive; negative
Species: MOUSE, Strain/Sex: B6C3F1/MALE, Route: INHALATION, Dose: 0, 2500, 15000, 75000 PPM SNOUT-ONLY INHALATION 1 HR/D FOR AT LEAST 104 WK (STUDY DURATION: 106 WK), Dose: 0, 2500, 15000, 75000 PPM SNOUT-ONLY INHALATION 1 HR/D FOR AT LEAST 104 WK (STUDY DURATION: 106 WK)
  carcinogen call: inactive; negative
Species: RAT, Strain/Sex: ALPK:APFSD/FEMALE, Route: INHALATION, Dose: 0, 2500, 10000, 50000 PPM 6 HR/D 5 D/WK FOR 104 WK (STUDY DURATION: 104 WK), Dose: 0, 2500, 10000, 50000 PPM 6 HR/D 5 D/WK FOR 104 WK (STUDY DURATION: 104 WK)
  carcinogen call: inactive; negative
Species: RAT, Strain/Sex: ALPK:APFSD/MALE, Route: INHALATION, Dose: 0, 2500, 10000, 50000 PPM 6 HR/D 5 D/WK FOR 104 WK (STUDY DURATION: 104 WK), Dose: 0, 2500, 10000, 50000 PPM 6 HR/D 5 D/WK FOR 104 WK (STUDY DURATION: 104 WK), Tumor Site: Type of Lesion: TESTES: LEYDIG CELL ADENOMA
  carcinogen call: active; positive
Species: RAT, Strain/Sex: WISTAR/FEMALE, Route: INHALATION, Dose: 0, 2500, 10000, 50000 PPM SNOUT-ONLY INHALATION 1 HR/D FOR AT LEAST 108 WK (STUDY DURATION: 110 WK), Dose: 0, 2500, 10000, 50000 PPM SNOUT-ONLY INHALATION 1 HR/D FOR AT LEAST 108 WK (STUDY DURATION: 110 WK)
  carcinogen call: inactive; negative
Species: RAT, Strain/Sex: WISTAR/MALE, Route: INHALATION, Dose: 0, 2500, 10000, 50000 PPM SNOUT-ONLY INHALATION 1 HR/D FOR AT LEAST 108 WK (STUDY DURATION: 110 WK), Dose: 0, 2500, 10000, 50000 PPM SNOUT-ONLY INHALATION 1 HR/D FOR AT LEAST 108 WK (STUDY DURATION: 110 WK)
  carcinogen call: inactive; negative

## Nc1ccc(-c2ccccc2)cc1O
Species: MOUSE, Strain/Sex: SWISS/FEMALE, Route: SUBCUTANEOUS, Dose: 0, 200 UG IN 0.02 ML 3% AQUEOUS GELATIN 1/D FOR 3 D (STUDY DURATION: 52 WK)
  carcinogen call: inactive; negative
Species: MOUSE, Strain/Sex: SWISS/MALE, Route: SUBCUTANEOUS, Dose: 0, 200 UG IN 0.02 ML 3% AQUEOUS GELATIN 1/D FOR 3 D (STUDY DURATION: 52 WK), Tumor Site: Type of Lesion: LIVER: HEPATOMA
  carcinogen call: active; positive

## c1ccc2nc3c(ccc4ccccc43)cc2c1
Species: MOUSE, Strain/Sex: SWISS/FEMALE, Route: INTRAPERITONEAL, Dose: 0, 1.05 UMOL GIVEN AS 150 NMOL IN 5 µL DMSO WITHIN 24 HR OF BIRTH, 300 NMOL IN 10 µL DMSO ON D 8 OF LIFE, AND 600 NMOL I, Tumor Site: Type of Lesion: LUNG: ADENOMA
  carcinogen call: active; positive
Species: MOUSE, Strain/Sex: SWISS/MALE, Route: INTRAPERITONEAL, Dose: 0, 1.05 UMOL GIVEN AS 150 NMOL IN 5 µL DMSO WITHIN 24 HR OF BIRTH, 300 NMOL IN 10 µL DMSO ON D 8 OF LIFE, AND 600 NMOL I, Tumor Site: Type of Lesion: LUNG: ADENOMA, LIVER: NEOPLASTIC NODULE
  carcinogen call: active; positive
Species: RAT, Strain/Sex: OSBORNE-MENDEL/FEMALE, Route: LUNG IMPLANT, Dose: 0, 0.1, 0.3, 1.0 MG IN BEESWAX/TRICAPRYLIN (STUDY DURATION: LIFETIME), Dose: 0, 0.1, 0.3, 1.0 MG IN BEESWAX/TRICAPRYLIN (STUDY DURATION: LIFETIME)
  carcinogen call: inactive; negative

## CC(C)CCC[C@@H](C)[C@H]1CC[C@H]2[C@@H]3C[C@H]4O[C@]45C[C@@H](O)CC[C@]5(C)[C@H]3CC[C@]12C
Species: RAT, Strain/Sex: STRAIN-CD/FEMALE, Route: INJECTION, Dose: 0, 12.3 UMOL (TOTAL DOSE) 1/6 INJECTED UNDER EACH OF 3 THORACIC AND 3 INGUINAL NIPPLES ONCE (STUDY DURATION: 44 WK)
  carcinogen call: inactive; negative

## OCCO
Species: MOUSE, Strain/Sex: B6C3F1/FEMALE, Route: ORAL, Dose: 0, 12500, 25000, 50000 PPM IN DIET FOR 721 D (STUDY DURATION: 105 WK), Dose: 0, 12500, 25000, 50000 PPM IN DIET FOR 721 D (STUDY DURATION: 105 WK)
  carcinogen call: inactive; negative
Species: MOUSE, Strain/Sex: B6C3F1/MALE, Route: ORAL, Dose: 0, 6250, 12500, 25000 PPM IN DIET FOR 721 D (STUDY DURATION: 105 WK), Dose: 0, 6250, 12500, 25000 PPM IN DIET FOR 721 D (STUDY DURATION: 105 WK)
  carcinogen call: inactive; negative
